How the values were obtained:
Assay type in all cases: in vivo, mouse
EAE mice = assay: Active EAE (MOG33-55/CFA), 4EGI-1 after onset of clinical symptoms
Description: Ten-week old female mice purchased from Jackson Laboratory were subcutaneously injected at two sites with 100 μL […] emulsified in CFA (Hooke Labs) per flank. On the same day, 6 hours later, and on day 2, mice were injected with 100 ng of pertussis toxin in 200 μL i.p. Mice were monitored daily and scored on a scale of 0-5 where 0, no disease; 1, tail paralysis; 2; hind limb paresis; 3, complete hind limb paralysis; 4, front limb weakness and hind limb paralysis, and 5, moribund state. When stated, mice were either administered 25 mg/kg 4EGI-1 or vehicle i.p. from d 0 to 21 following EAE induction or 75 mg/kg 4EGI-1 or vehicle i.p. from day 12 to 21 following EAE induction and randomization. LFB-H images imported into FIJI underwent color deconvolution to isolate myelin staining. A binary image was generated and % myelination of the spinal cord was calculated. Spinal cords from mice not subjected to EAE were set to 100% and all other samples from the same group were normalized. H&E images imported into FIJI underwent color deconvolution to isolate hematoxylin staining. A binary image was generated and % infiltration of the spinal cord of was calculated. Five-micron sections of paraffin embedded tissue were stained with Akoya Biosciences® Opal™ multiplex automation kit reagents unless stated otherwise. Automated staining was performed on Leica BondRX® autostainer. The protocol was performed according to manufacturers' instructions with primary antibodies to CD19 (Cell Signaling Technology, cat #90176) and CD4 (Cell Signaling Technology, cat #25229). Briefly, all slides underwent sequential epitope retrieval with Leica Biosystems epitope retrieval 2 solution (EDTA based, pH9, Cat. AR9640), primary and secondary antibody incubation and tyramide signal amplification (TSA) with Opal® fluorophores Op690 and Op520. Primary and secondary antibodies were removed during epitope retrieval steps while fluorophores remain covalently attached to the epitope. Semi-automated image acquisition was performed on a Vectra® Polaris multispectral imaging system. After whole slide scanning at 10× the tissue was manually outlined to select fields for multispectral imaging at 20×. Phenochart® software from Akoya Biosciences was used for spectral unmixing of the whole slide scans. Scans were imported into QuPath and representative images were exported into FIJI.

TH2 cells and Tregs = assay: A. fumigatus repeat sensitization airway disease model
Description: A. fumigatus Fresenius (ATCC 13073) was grown for 7 days on potato dextrose agar plates (Thermo Scientific) at 37° C. Conidia were harvested by agitation in a flask with sterile PBS+0.1% Tween-20 and filtered through a 40 μm nylon mesh. Mice were intratracheally sensitized with 1.8×10^6 conidia in 50 μL of PBS on days 0, 7, and 11. On day 0 through 17 mice were treated daily with i.p. 25 mg/kg 4EGI-1 or vehicle. On day 18, mice were euthanized and lungs were collected along with mediastinal lymph node (MedLN) and blood. Serum was obtained and stored as described above.
Spleens, draining lymph nodes, and brains were dissociated with the plunger-end of a syringe and passed through a 70 μm nylon filter. Splenocytes were subject to RBC lysis with ACK (Ammonium-Chloride-Potassium). Ears were subject to mechanical dissociation with scissors prior to incubation in 1 mL PBS in a 48-well plate with 100 μg/mL Liberase TL and 20 μg/mL DNase I for 1.5 hours at 37° C. Following incubation, cells were further dissociated by passing through a syringe, quenched with PBS+2% FCS, and filtered through a 70 μm nylon filter. Lungs were mechanically dissociated with a razor blade and incubated in a 6 cm dish with 5 mLs RPMI containing 250 μg/mL collagenase, 50 μg/mL Liberase TL, 1 mg/mL hyaluronidase, and 200 μg/mL DNase I for 30 minutes. Following incubation, cells quenched with PBS+2% FCS, and filtered through a 70 μm nylon filter. Ear and lung cells were subject to lymphocyte isolation using a gradient (Lymphocyte Separation Medium; Cellgro). Vertebral columns were flushed with PBS through a 19-gauge needle to remove intact spinal cords. Spinal cords were subject to mechanical dissociation with scissors and incubation in 1 mL PBS with 200 μg/mL DNase I and 50 μg/mL Liberase TL for 30 minutes at 37° C. Following incubation, cells were quenched with PBS+2% FCS and filtered through a 70 μm nylon filter.
For quantification of OVA-specific IgG1, high-binding 96-well plates (Costar) were coated with 10 μg/mL OVA protein. For S. aureus-specific IgG1, plates were coated with heat-killed S. aureus (heat-killed at 80° C. for 30 min). For total IgE, plates were coated with 2 μg/mL rat anti-mouse IgE (Southern Biotech). Following overnight incubation at 4° C., plates were blocked with 1% BSA for 30 min at 37° C. After blocking, serum (diluted 1/20 initially then 1/2 down the plate) was incubated at 37° C. for 2 hours, plates were washed 3 times in PBS and then incubated with 1:1000 anti-mouse IgG1-HRP (Southern Biotech) or anti-mouse IgE-HRP (Southern Biotech) for 1 hour at 37° C. Plates were washed 3 times in PBS and incubated with TMB substrate. Following development, TMB Stop Solution (BioLegend®) was added and plates were read at […].
Lungs fixed in 4% PFA (ThermoFisher) and spinal cords fixed in 10% buffered formalin (Leica) were incubated overnight and moved to 70% ethanol prior to ethanol dehydration, xylene incubation, and paraffin embedding. Five-micron thick sections of lung were stained with hematoxylin and eosin (H&E), Periodic Acid-Schiff (PAS), or Masson's Trichrome Stain (MTS). Spinal cords were stained with H&E or Luxol fast blue and hematoxylin (LFB-H). Staining was visualized with an EVOS FLc microscope.

[1] = tested on: TH17-differentiated 2D2 T cells; assay: Passive EAE with TH17-differentiated 2D2 T cells pre-treated with 4EGI-1; conditions: 2D2 T cells pre-treated with 20 μM 4EGI-1 for 1 h in vitro
Description: TH17 2D2 T cells were removed from activation and treated with vehicle or 20 μM 4EGI-1 for 1 h at 37° C. in vitro prior to transfer of 9.3×10^6 2 D2 T cells i.p. per recipient. Mice were given 200 ng pertussis toxin i.p. […] following T cell injection. Animals were monitored daily for 35 days and scored on a scale of 0-5 as described above. At day 35, TFH-like (ICOS^high) Vα3.2 cells were identified from the spinal cord.

[2] = 25 mg/kg daily i.p., lung sections
[3] = mediastinal lymph nodes, day 18

SMILES: O=C(O)C(Cc1ccccc1[N+](=O)[O-])=NNc1nc(-c2ccc(Cl)c(Cl)c2)cs1 (mixture of isomers) [4EGI-1]
- day by which mice entered remission (EAE mice; 75 mg/kg from day 12): ≤ 15 days
- decrease of CD4+ T cells producing IFN-γ in spinal cord and brain (EAE mice; 75 mg/kg from day 12): 4 fold
- decrease of CD4+ T cells producing IL-17A in spinal cord and brain (EAE mice; 75 mg/kg from day 12): 4 fold
- decreased infiltration and retention of CD4+ T cells in brain (EAE mice; 75 mg/kg from day 12): 4 fold
- time to marked improvement in clinical symptoms after 4EGI-1 administration (EAE mice; 75 mg/kg from day 12): 2 to 3 days
- spinal cord immune cell infiltration (EAE mice; 75 mg/kg from day 12, H&E): marked reduction
- weight compared to vehicle-treated animals (EAE mice; 75 mg/kg from day 12, day 18): increased
- decreased infiltration and retention of CD4+ T cells in spinal cord (EAE mice; 75 mg/kg from day 12, day 21): 4 fold
- decreased levels of splenic TFH cells (EAE mice; 75 mg/kg from day 12, day 21): 3 fold
- demyelination compared to vehicle-treated mice (EAE mice; 75 mg/kg from day 12, day 21): reduced
- myelination regained, relative to normal levels (EAE mice; 75 mg/kg from day 12, day 21, Luxol fast blue): ~90%
- ELFs / CD4+ T cell clusters in spinal cord (EAE mice; 75 mg/kg from day 12, immunofluorescence): smaller clusters
- progression of disease (EAE mice; 75 mg/kg from day 12, vs vehicle-treated mice): inhibited
- levels of pulmonary TH2 cells (GATA3+ or IL-13+) (TH2 cells and Tregs; 25 mg/kg daily i.p., day 18): no effect
- levels of pulmonary Tregs (Foxp3+) (TH2 cells and Tregs; 25 mg/kg daily i.p., day 18): no effect
- levels of pulmonary eosinophils (TH2 cells and Tregs; 25 mg/kg daily i.p., day 18): no effect
- airway inflammation (TH2 cells and Tregs; [2]): no effect
- mucin production (TH2 cells and Tregs; [2]): no effect
- formation of GC B cells in draining lymph nodes (TH2 cells and Tregs; [3]): strongly reduced
- formation of TFH cells in draining lymph nodes (TH2 cells and Tregs; [3]): strongly reduced
- secretion of class-switched immunoglobulins (TH2 cells and Tregs; serum total IgE, day 18): strongly reduced
- TFH-like 2D2 T cells (ICOShigh) in the spinal cord [1]: reduced by half
- development of passive EAE disease in recipient mice [1]: did not develop disease
